In patent US8829011B2 (Janssen Pharmaceutica NV, priority 2008, dated 2014):
Where a name gives a salt, the structure may show the parent alone.

Assays:
[1] = target: T1, rat 5-HT7a receptor (Rattus norvegicus, UniProt P32305); assay: Affinity for 5-HT7 receptor binding sites (competition radioligand binding, [3H]5-CT); conditions: membranes of HEK-293 cells with rat 5-HT7a; 1 nM [3H]5-CT; * = tested as hydrochloride salt
T1 construct: expressed in transfected cells; host or cells: HEK-293
Procedure: (§1) Stock drug solutions (10 mM) were prepared in DMSO (the final assay concentration of DMSO not exceeding 0.4%). Drug dilutions were prepared in assay buffer.
(§2) Sigmoidal inhibition curves were generated and fitted by nonlinear regression analysis (GraphPad Prism).
1. Affinity for 5-HT7 Receptor Binding Sites
The affinity of the compounds described in this invention for the 5-HT7 receptor binding site was evaluated by single competition radioligand binding assay. The assay was performed on membranes prepared from HEK-293 cells that had been subjected to stable transfection with the rat 5-HT7a receptor (GB: NM022938). Cells were scraped from the culture plates, suspended in Tris-HCl 50 mM pH 7.5 and collected through centrifugation (1000 rpm for 5 min). The cell pellets were homogenized (Polytron, 15 s, setting 5) in 50 mM Tris-HCl (pH 7.5), 5 mM EDTA. Following centrifugation (15,000 rpm for 25 min), membranes (135 μg protein/mL) were resuspended in the same buffer and incubated for 60 min at RT with 1 nM [^3H]5-CT in the presence of increasing concentration of test compounds. Nonspecific binding was defined in the presence of 10 μM 5-HT. Incubation was stopped by rapid filtration using the cell harvester (Packard). Radioactivity was counted in a TopCount-NXT (Packard). Experiments were conducted in triplicate.

[2] = target: T2, human recombinant 5-HT2B receptor (Homo sapiens, UniProt P41595); assay: Affinity for 5-HT2B receptor binding sites (competitive radioligand binding, [3H]mesulergine); conditions: membranes of CHO with h5-HT2B, * = tested as hydrochloride salt
T2 construct: expressed in transfected cells; host or cells: CHO
T2 sequence (P41595 whole entry): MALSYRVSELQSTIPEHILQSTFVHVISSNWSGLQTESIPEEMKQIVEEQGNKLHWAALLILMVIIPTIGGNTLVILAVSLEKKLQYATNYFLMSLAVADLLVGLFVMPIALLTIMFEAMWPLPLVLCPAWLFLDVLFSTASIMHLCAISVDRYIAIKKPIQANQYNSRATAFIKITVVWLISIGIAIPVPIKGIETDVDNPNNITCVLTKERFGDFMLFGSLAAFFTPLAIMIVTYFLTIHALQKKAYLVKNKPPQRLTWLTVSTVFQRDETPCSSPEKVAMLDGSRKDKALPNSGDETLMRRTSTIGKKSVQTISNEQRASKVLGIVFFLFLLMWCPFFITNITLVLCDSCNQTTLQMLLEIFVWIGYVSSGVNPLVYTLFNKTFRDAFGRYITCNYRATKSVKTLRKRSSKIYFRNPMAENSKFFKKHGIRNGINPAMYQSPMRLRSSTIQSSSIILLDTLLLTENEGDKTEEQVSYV
Procedure: as §1, §2
(§3) 2. Affinity for 5HT2 Receptor Binding Sites
(§4) Receptor binding was performed using the human recombinant 5-HT2A (GB: X57830), 5-HT2B (GB: Z36748) and 5-HT2C (GB: M81778) receptors. The affinity of the compounds for the 3 different human 5-HT2 receptor subtypes was evaluated by competitive radioligand binding assays using [^3H]ketanserin (h5-HT2A) or [^3H]mesulergine (h5-HT2B and h5-HT2C). The assays were performed on membranes prepared from NIH3T3 stably transfected with h5-HT2A or CHO stably transfected with h5-HT2B and h5-HT2C.

[3] = target: T3, human recombinant 5-HT2C receptor (Homo sapiens, UniProt P28335); assay: Affinity for 5-HT2C receptor binding sites (competitive radioligand binding, [3H]mesulergine); conditions: membranes of CHO with h5-HT2C, * = tested as hydrochloride salt
T3 construct: expressed in transfected cells; host or cells: CHO
T3 sequence (P28335 33-458): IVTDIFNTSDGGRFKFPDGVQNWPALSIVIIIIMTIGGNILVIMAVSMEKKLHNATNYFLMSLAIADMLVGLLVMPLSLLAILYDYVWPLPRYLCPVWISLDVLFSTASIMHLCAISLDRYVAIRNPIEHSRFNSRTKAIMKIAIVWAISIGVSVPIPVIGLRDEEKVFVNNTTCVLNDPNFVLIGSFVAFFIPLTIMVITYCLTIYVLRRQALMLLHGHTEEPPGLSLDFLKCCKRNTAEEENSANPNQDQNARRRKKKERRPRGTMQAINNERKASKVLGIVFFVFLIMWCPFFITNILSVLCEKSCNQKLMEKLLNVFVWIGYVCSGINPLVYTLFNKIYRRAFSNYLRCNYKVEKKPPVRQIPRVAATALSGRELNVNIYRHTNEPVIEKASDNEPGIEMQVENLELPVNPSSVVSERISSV
Procedure: as §1, §2, §3, §4

[4] = target: T4, human recombinant 5-HT2A receptor (Homo sapiens, UniProt P28223); assay: Affinity for 5-HT2A receptor binding sites (competitive radioligand binding, [3H]ketanserin); conditions: membranes of NIH3T3 with h5-HT2A, * = tested as hydrochloride salt
T4 construct: expressed in transfected cells; host or cells: NIH3T3
T4 sequence (P28223 whole entry): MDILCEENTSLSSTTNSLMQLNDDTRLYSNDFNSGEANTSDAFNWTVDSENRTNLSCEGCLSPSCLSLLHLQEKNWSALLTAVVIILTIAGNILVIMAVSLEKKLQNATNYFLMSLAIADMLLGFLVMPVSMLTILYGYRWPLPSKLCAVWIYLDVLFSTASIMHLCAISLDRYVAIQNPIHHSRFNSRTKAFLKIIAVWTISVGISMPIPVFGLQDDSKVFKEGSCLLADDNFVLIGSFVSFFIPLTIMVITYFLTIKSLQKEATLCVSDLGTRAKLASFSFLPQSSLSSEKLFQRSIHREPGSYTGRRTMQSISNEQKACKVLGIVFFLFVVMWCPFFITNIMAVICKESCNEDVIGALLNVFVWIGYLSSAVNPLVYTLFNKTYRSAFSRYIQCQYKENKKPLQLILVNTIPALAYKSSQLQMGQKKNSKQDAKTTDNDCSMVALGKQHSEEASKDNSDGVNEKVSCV
Procedure: as §1, §2, §3, §4

[5] = target: T5, human recombinant 5-HT6 receptor (Homo sapiens, UniProt P50406); assay: Affinity for 5-HT6 receptor binding sites (competitive radioligand binding, [3H]LSD); conditions: membranes of HEK-293 with h5-HT6, * = tested as hydrochloride salt
T5 construct: expressed in transfected cells; host or cells: HEK-293
T5 sequence (P50406 whole entry): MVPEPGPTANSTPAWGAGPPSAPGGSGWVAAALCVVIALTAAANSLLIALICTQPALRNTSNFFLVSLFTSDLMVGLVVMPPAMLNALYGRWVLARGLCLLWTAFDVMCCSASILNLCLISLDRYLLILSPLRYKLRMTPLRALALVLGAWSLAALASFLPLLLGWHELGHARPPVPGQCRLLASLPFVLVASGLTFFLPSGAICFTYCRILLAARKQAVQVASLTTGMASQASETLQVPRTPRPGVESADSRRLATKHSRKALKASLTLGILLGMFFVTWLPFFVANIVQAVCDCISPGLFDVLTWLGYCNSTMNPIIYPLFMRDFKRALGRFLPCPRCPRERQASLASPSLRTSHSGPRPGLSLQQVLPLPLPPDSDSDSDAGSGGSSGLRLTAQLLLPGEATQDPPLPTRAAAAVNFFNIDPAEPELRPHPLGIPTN
Procedure: as §1, §2
3. Affinity for 5-HT6 Receptor Binding Sites
Receptor binding was performed using the human recombinant 5-HT6 (GB: BC0794995) receptor. The affinity of the compounds for the human 5-HT6 receptor was evaluated by competitive radioligand binding assays using [^3H]LSD. The assays were performed on membranes prepared from HEK-293 stably transfected with h5-HT6. Non-specific binding was estimated in the presence of 1 μM clozapine.

T1 sequence (P32305 whole entry): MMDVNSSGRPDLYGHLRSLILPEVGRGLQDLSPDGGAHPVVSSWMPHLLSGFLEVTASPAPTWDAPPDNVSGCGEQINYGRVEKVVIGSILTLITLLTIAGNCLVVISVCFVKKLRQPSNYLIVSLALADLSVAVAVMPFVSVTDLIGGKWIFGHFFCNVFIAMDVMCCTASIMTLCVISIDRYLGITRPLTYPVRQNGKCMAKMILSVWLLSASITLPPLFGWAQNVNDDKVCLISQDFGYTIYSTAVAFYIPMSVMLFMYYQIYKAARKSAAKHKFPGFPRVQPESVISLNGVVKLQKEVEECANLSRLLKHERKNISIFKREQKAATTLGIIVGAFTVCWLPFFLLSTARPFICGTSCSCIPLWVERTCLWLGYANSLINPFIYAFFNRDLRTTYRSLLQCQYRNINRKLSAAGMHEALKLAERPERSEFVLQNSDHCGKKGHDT

SMILES	Ki [1] [nM]	Ki [2] [nM]	Ki [3] [nM]	Ki [4] [nM]	Ki [5] [nM]
CCN(CC)c1nc2c(c(-c3ccc(F)cc3)n1)CNCCC2 [Example 15, Diethyl-[4-(4-fluoro-phenyl)-6,7,8,9-tetrahydro-5H-1,3,6-triaza-benzocyclohepten-2-yl]-amine]	> 10000	–	–	–	–
CCN(CC)c1nc2c(c(-c3ccc(C)cc3)n1)CNCCC2 [Example 16, Diethyl-(4-p-tolyl-6,7,8,9-tetrahydro-5H-1,3,6-triaza-benzocyclohepten-2-yl)-amine]	500	320	630	50	–
CCN(CC)c1nc2c(c(-c3ccc(OC)cc3)n1)CNCCC2 [Example 17, Diethyl-[4-(4-methoxy-phenyl)-6,7,8,9-tetrahydro-5H-1,3,6-triaza-benzocyclohepten-2-yl]-amine]	> 10000	630	2500	900	–
CCN(CC)c1nc2c(c(-c3ccc(C#N)cc3)n1)CNCCC2 [Example 18, 4-(2-Diethylamino-6,7,8,9-tetrahydro-5H-1,3,6-triaza-benzocyclohepten-4-yl)-benzonitrile]	> 10000	–	–	–	–
Cc1ccc(-c2nc(N3CCCCC3)nc3c2CNCCC3)cc1 [Example 19, 2-Piperidin-1-yl-4-p-tolyl-6,7,8,9-tetrahydro-5H-1,3,6-triaza-benzocycloheptene]	> 10000	1000	3160	1500	–
Fc1ccc(-c2nc(N3CCCCC3)nc3c2CNCCC3)cc1 [Example 20, 4-(4-Fluoro-phenyl)-2-piperidin-1-yl-6,7,8,9-tetrahydro-5H-1,3,6-triaza-benzocycloheptene hydrochloride]	> 10000	790	6310	300	–
COc1ccc(-c2nc(N3CCCCC3)nc3c2CNCCC3)cc1 [Example 21, 4-(4-Methoxy-phenyl)-2-piperidin-1-yl-6,7,8,9-tetrahydro-5H-1,3,6-triaza-benzocycloheptene hydrochloride]	> 10000	–	–	–	–
N#Cc1ccc(-c2nc(N3CCCCC3)nc3c2CNCCC3)cc1 [Example 22, 4-(2-Piperidin-1-yl-6,7,8,9-tetrahydro-5H-1,3,6-triaza-benzocyclohepten-4-yl)-benzonitrile hydrochloride]	> 10000	2510	> 10000	> 10000	–
CCN(CC)c1nc2c(c(-c3ccc(F)cc3)n1)CCN(Cc1ccccc1)C2 [Example 23, [7-Benzyl-4-(4-fluoro-phenyl)-5,6,7,8-tetrahydro-pyrido[3,4-d]pyrimidin-2-yl]-diethyl-amine]	620	350	2800	60	–
CCN(CC)c1nc2c(c(-c3ccc(C)cc3)n1)CCN(Cc1ccccc1)C2 [Example 25, (7-Benzyl-4-p-tolyl-5,6,7,8-tetrahydro-pyrido[3,4-d]pyrimidin-2-yl)-diethyl-amine]	> 10000	620	> 10000	190	–
CCN(CC)c1nc2c(c(-c3ccc(OC)cc3)n1)CCN(Cc1ccccc1)C2 [Example 27, [7-Benzyl-4-(4-methoxy-phenyl)-5,6,7,8-tetrahydro-pyrido[3,4-d]pyrimidin-2-yl]-diethyl-amine]	> 10000	660	> 10000	1700	–
CCN(CC)c1nc2c(c(-c3ccc(C#N)cc3)n1)CCN(Cc1ccccc1)C2 [Example 29, 4-(7-Benzyl-2-diethylamino-5,6,7,8-tetrahydro-pyrido[3,4-d]pyrimidin-4-yl)-benzonitrile]	> 10000	1100	> 10000	650	–
Fc1ccc(-c2nc(N3CCCCCC3)nc3c2CCN(Cc2ccccc2)C3)cc1 [Example 31, 2-Azepan-1-yl-7-benzyl-4-(4-fluoro-phenyl)-5,6,7,8-tetrahydro-pyrido[3,4-d]pyrimidine]	> 10000	1600	3200	230	–
Fc1ccc(-c2nc(N3CCCCCC3)nc3c2CCNC3)cc1 [Example 32, 2-Azepan-1-yl-4-(4-fluoro-phenyl)-5,6,7,8-tetrahydro-pyrido[3,4-d]pyrimidine]	270	30	110	9	–
Cc1ccc(-c2nc(N3CCS(=O)(=O)CC3)nc3c2CCNCC3)cc1Cl [Example 92, 4-(3-Chloro-4-methyl-phenyl)-2-(1,1-dioxo-1λ^6-thiomorpholin-4-yl)-6,7,8,9-tetrahydro-5H-pyrimido[4,5-d]azepine]	–	950	2040	1140	85
Cc1ccc(-c2nc(N3CCOC[C@@H]3C)nc3c2CCNCC3)cc1Cl [Example 93, 4-(3-chloro-4-methylphenyl)-6,7,8,9-tetrahydro-2-[(3S)-3-methyl-4-morpholinyl]-5H-pyrimido[4,5-d]azepine]	–	18	28	150	9
Cc1ccc(-c2nc(N3CCOC[C@@H]3C)nc3c2CCNCC3)cc1 [Example 94, 6,7,8,9-tetrahydro-2-[(3S)-3-methyl-4-morpholinyl]-4-(4-methylphenyl)-5H-pyrimido[4,5-d]azepine]	–	15	15	25	8
C[C@H]1COCCN1c1nc2c(c(-c3cnc4ccccc4c3)n1)CCNCC2 [Example 95, 6,7,8,9-tetrahydro-2-[(3S)-3-methyl-4-morpholinyl]-4-(3-quinolinyl)-5H-pyrimido[4,5-d]azepine]	–	580	810	150	7
C[C@H]1COCCN1c1nc2c(c(-c3ccc(Cl)cc3)n1)CCNCC2 [Example 96, 4-(4-chlorophenyl)-6,7,8,9-tetrahydro-2-[(3S)-3-methyl-4-morpholinyl]-5H-pyrimido[4,5-d]azepine]	–	35	69	100	13
Cc1ccc(-c2nc(N3CCOC[C@@H]3C)nc3c2CCNCC3)cc1F [Example 97, 4-(3-fluoro-4-methylphenyl)-6,7,8,9-tetrahydro-2-[(3S)-3-methyl-4-morpholinyl]-5H-pyrimido[4,5-d]azepine]	–	39	92	400	23
C[C@H]1COCCN1c1nc2c(c(-c3cc4ccccc4o3)n1)CCNCC2 [Example 98, 4-(2-benzofuranyl)-6,7,8,9-tetrahydro-2-[(3S)-3-methyl-4-morpholinyl]-5H-pyrimido[4,5-d]azepine]	–	25	140	99	13
C[C@@H]1COCCN1c1nc2c(c(-c3cnc4ccccc4c3)n1)CCNCC2 [Example 99, 6,7,8,9-tetrahydro-2-[(3R)-3-methyl-4-morpholinyl]-4-(3-quinolinyl)-5H-pyrimido[4,5-d]azepine]	–	280	490	1440	30
Cc1ccc(-c2nc(N3CCOC[C@H]3C)nc3c2CCNCC3)cc1 [Example 100, 6,7,8,9-tetrahydro-2-[(3R)-3-methyl-4-morpholinyl]-4-(4-methylphenyl)-5H-pyrimido[4,5-d]azepine]	–	8	4	21	6
